Source: ChEMBL document CHEMBL4229379, “Synthesis and structure-activity relationship of novel bisindole amidines active against MDR Gram-positive and Gram-negative bacteria” (Eur J Med Chem, 2018)

Assays:
[1] = system: Escherichia coli; assay: Antibacterial activity against extended-spectrum beta-lactamase harboring Escherichia coli 13-1 after 18 hrs by CLSI broth microdilution method; format: functional; settings: 13-1, 18 h
[2] = system: Enterobacter cloacae; assay: Antibacterial activity against new delhi metallo-beta-lactamase-1 harboring Enterobacter cloacae 13-1 after 18 hrs by CLSI broth microdilution method; format: functional; settings: 13-1, 18 h
[3] = system: Klebsiella pneumoniae; assay: Antibacterial activity against carbapenem-resistant Klebsiella pneumoniae 12-11 after 18 hrs by CLSI broth microdilution method; format: functional; settings: 12-11, 18 h
[4] = system: Enterobacter cloacae; assay: Antibacterial activity against new delhi metallo-beta-lactamase-1 harboring Enterobacter cloacae CDC1000654 after 18 hrs by CLSI broth microdilution method; format: functional; settings: CDC1000654, 18 h
[5] = system: Klebsiella pneumoniae; assay: Antibacterial activity against carbapenem-resistant Klebsiella pneumoniae 12-12 after 18 hrs by CLSI broth microdilution method; format: functional; settings: 12-12, 18 h
[6] = system: Klebsiella aerogenes; assay: Antibacterial activity against carbapenem-resistant Enterobacter aerogenes 11-4 after 18 hrs by CLSI broth microdilution method; format: functional; settings: 11-4, 18 h
[7] = system: Escherichia coli; assay: Antibacterial activity against extended-spectrum beta-lactamase harboring Escherichia coli CDC1001728 after 18 hrs by CLSI broth microdilution method; format: functional; settings: CDC1001728, 18 h
[8] = system: Acinetobacter calcoaceticus; assay: Antibacterial activity against carbapenem-resistant Acinetobacter calcoaceticus 12-6 after 18 hrs by CLSI broth microdilution method; format: functional; settings: 12-6, 18 h
[9] = system: Klebsiella pneumoniae; assay: Antibacterial activity against new delhi metallo-beta-lactamase-1 harboring Klebsiella pneumoniae 13-1 after 18 hrs by CLSI broth microdilution method; format: functional; settings: 13-1, 18 h
[10] = system: Acinetobacter calcoaceticus; assay: Antibacterial activity against new delhi metallo-beta-lactamase-1 harboring Acinetobacter calcoaceticus 13-1 after 18 hrs by CLSI broth microdilution method; format: functional; settings: 13-1, 18 h
[11] = system: Stenotrophomonas maltophilia; assay: Antibacterial activity against Stenotrophomonas maltophilia ATCC 13636 after 18 hrs by CLSI broth microdilution method; format: functional; settings: ATCC 13636, 18 h
[12] = system: Enterococcus faecium; assay: Potency index, ratio of levofloxacin MIC to compound MIC for vancomycin-resistant Enterococcus faecium 12-1; format: functional
[13] = system: Escherichia coli; assay: Antibacterial activity against extended-spectrum beta-lactamase deficient Escherichia coli 12-14 after 18 hrs by CLSI broth microdilution method; format: functional; settings: 12-14, 18 h
[14] = system: Enterococcus faecalis; assay: Antibacterial activity against vancomycin-sensitive Enterococcus faecalis 12-5 after 18 hrs by CLSI broth microdilution method; format: functional; settings: 12-5, 18 h
[15] = system: Staphylococcus epidermidis; assay: Antibacterial activity against methicillin-sensitive Staphylococcus epidermidis ATCC 12228 after 18 hrs by CLSI broth microdilution method; format: functional; settings: ATCC 12228, 18 h
[16] = system: Klebsiella pneumoniae; assay: Antibacterial activity against new delhi metallo-beta-lactamase-1 harboring Klebsiella pneumoniae ATCC BAA-2146 after 18 hrs by CLSI broth microdilution method; format: functional; settings: ATCC BAA-2146, 18 h
[17] = system: Serratia marcescens; assay: Antibacterial activity against Serratia marcescens ATCC 21074 after 18 hrs by CLSI broth microdilution method; format: functional; settings: ATCC 21074, 18 h
[18] = system: Staphylococcus aureus; assay: Antibacterial activity against methicillin-sensitive Staphylococcus aureus 15 after 18 hrs by CLSI broth microdilution method; format: functional; settings: Staphylococcus aureus, 15, 18 h
[19] = system: Enterococcus faecalis; assay: Antibacterial activity against vancomycin-resistant Enterococcus faecalis ATCC 51299 after 18 hrs by CLSI broth microdilution method; format: functional; settings: ATCC 51299, 18 h
[20] = system: Proteus mirabilis; assay: Antibacterial activity against Proteus mirabilis 12-6 after 18 hrs by CLSI broth microdilution method; format: functional; settings: 12-6, 18 h
[21] = system: Klebsiella pneumoniae; assay: Antibacterial activity against extended-spectrum beta-lactamase harboring Klebsiella pneumoniae ATCC 700603 after 18 hrs by CLSI broth microdilution method; format: functional; settings: Klebsiella pneumoniae, 700603, 18 h
[22] = system: Pseudomonas aeruginosa; assay: Antibacterial activity against Pseudomonas aeruginosa 12-16 after 18 hrs by CLSI broth microdilution method; format: functional; settings: 12-16, 18 h
[23] = system: Staphylococcus aureus; assay: Antibacterial activity against methicillin-resistant Staphylococcus aureus ATCC 33591 after 18 hrs by CLSI broth microdilution method; format: functional; settings: ATCC 33591, 18 h
[24] = system: Proteus vulgaris; assay: Antibacterial activity against Proteus vulgaris ATCC 29905 after 18 hrs by CLSI broth microdilution method; format: functional; settings: ATCC 29905, 18 h
[25] = system: Enterococcus faecium; assay: Antibacterial activity against vancomycin-resistant Enterococcus faecium 12-1 after 18 hrs by CLSI broth microdilution method; format: functional; settings: 12-1, 18 h
[26] = system: Klebsiella pneumoniae; assay: Antibacterial activity against extended-spectrum beta-lactamase harboring Klebsiella pneumoniae 12-8 after 18 hrs by CLSI broth microdilution method; format: functional; settings: 12-8, 18 h
[27] = system: Enterococcus faecium; assay: Antibacterial activity against vancomycin-sensitive Enterococcus faecium 12-3 after 18 hrs by CLSI broth microdilution method; format: functional; settings: 12-3, 18 h
[28] = system: Enterococcus faecalis; assay: Antibacterial activity against vancomycin-resistant Enterococcus faecalis 09-9 after 18 hrs by CLSI broth microdilution method; format: functional; settings: 09-9, 18 h
[29] = system: Enterococcus faecalis; assay: Potency index, ratio of levofloxacin MIC to compound MIC for vancomycin-resistant Enterococcus faecalis 09-9; format: functional
[30] = system: Staphylococcus epidermidis; assay: Antibacterial activity against methicillin-resistant Staphylococcus epidermidis 12-8 after 18 hrs by CLSI broth microdilution method; format: functional; settings: 12-8, 18 h
[31] = system: Enterococcus faecium; assay: Potency index, ratio of levofloxacin MIC to compound MIC for vancomycin-resistant Enterococcus faecium ATCC 700221; format: functional
[32] = Cytotoxicity against HEK293T cells assessed as reduction in cell viability after 48 hrs by MTS assay; format: cell-based, HEK-293T; settings: human
[33] = system: Escherichia coli; assay: Antibacterial activity against extended-spectrum beta-lactamase harboring Escherichia coli 12-15 after 18 hrs by CLSI broth microdilution method; format: functional; settings: 12-15, 18 h
[34] = system: Providencia rettgeri; assay: Antibacterial activity against Providencia rettgeri ATCC 31052 after 18 hrs by CLSI broth microdilution method; format: functional; settings: ATCC 31052, 18 h
[35] = system: Klebsiella pneumoniae; assay: Antibacterial activity against extended-spectrum beta-lactamase deficient Klebsiella pneumoniae 7 after 18 hrs by CLSI broth microdilution method; format: functional; settings: Klebsiella pneumoniae, 7, 18 h
[36] = system: Citrobacter freundii; assay: Antibacterial activity against Citrobacter freundii ATCC 43864 after 18 hrs by CLSI broth microdilution method; format: functional; settings: ATCC 43864, 18 h
[37] = system: Enterococcus faecium; assay: Antibacterial activity against vancomycin-resistant Enterococcus faecium ATCC 700221 after 18 hrs by CLSI broth microdilution method; format: functional; settings: ATCC 700221, 18 h
[38] = system: Pseudomonas aeruginosa; assay: Antibacterial activity against Pseudomonas aeruginosa ATCC 27853 after 18 hrs by CLSI broth microdilution method; format: functional; settings: ATCC 27853, 18 h
[39] = system: Klebsiella aerogenes; assay: Antibacterial activity against Enterobacter aerogenes ATCC 13048 after 18 hrs by CLSI broth microdilution method; format: functional; settings: ATCC 13048, 18 h
[40] = system: Acinetobacter calcoaceticus; assay: Antibacterial activity against Acinetobacter calcoaceticus ATCC 19606 after 18 hrs by CLSI broth microdilution method; format: functional; settings: ATCC 19606, 18 h
[41] = system: Enterococcus faecalis; assay: Potency index, ratio of levofloxacin MIC to compound MIC for vancomycin-resistant Enterococcus faecalis ATCC 51299; format: functional
[42] = system: Staphylococcus aureus; assay: Antibacterial activity against methicillin-resistant Staphylococcus aureus 12-33 after 18 hrs by CLSI broth microdilution method; format: functional; settings: 12-33, 18 h
[43] = system: Enterobacter cloacae; assay: Antibacterial activity against Enterobacter cloacae ATCC 43560 after 18 hrs by CLSI broth microdilution method; format: functional; settings: ATCC 43560, 18 h
[44] = system: Escherichia coli; assay: Antibacterial activity against extended-spectrum beta-lactamase deficient Escherichia coli 1515 after 18 hrs by CLSI broth microdilution method; format: functional; settings: Escherichia coli, 1515, 18 h
[45] = system: Klebsiella pneumoniae; assay: Antibacterial activity against extended-spectrum beta-lactamase deficient Klebsiella pneumoniae 12-4 after 18 hrs by CLSI broth microdilution method; format: functional; settings: 12-4, 18 h
[46] = system: Pseudomonas aeruginosa; assay: Antibacterial activity against Pseudomonas aeruginosa PAO1 after 18 hrs by CLSI broth microdilution method; format: functional; settings: PAO1, 18 h
[47] = system: Staphylococcus epidermidis; assay: Antibacterial activity against methicillin-sensitive Staphylococcus epidermidis 12-6 after 18 hrs by CLSI broth microdilution method; format: functional; settings: 12-6, 18 h
[48] = system: Staphylococcus aureus; assay: Potency index, ratio of levofloxacin MIC to compound MIC for methicillin-resistant Staphylococcus aureus ATCC 33591; format: functional
[49] = system: Staphylococcus aureus; assay: Potency index, ratio of levofloxacin MIC to compound MIC for methicillin-resistant Staphylococcus aureus 12-33; format: functional
[50] = system: Enterococcus faecalis; assay: Antibacterial activity against vancomycin-sensitive Enterococcus faecalis ATCC 29212 after 18 hrs by CLSI broth microdilution method; format: functional; settings: ATCC 29212, 18 h
[51] = system: Escherichia coli; assay: Antibacterial activity against extended-spectrum beta-lactamase deficient Escherichia coli ATCC 25922 after 18 hrs by CLSI broth microdilution method; format: functional; settings: ATCC 25922, 18 h
[52] = system: Staphylococcus aureus; assay: Antibacterial activity against methicillin-sensitive Staphylococcus aureus ATCC 29213 after 18 hrs by CLSI broth microdilution method; format: functional; settings: ATCC 29213, 18 h
[53] = system: Staphylococcus aureus; assay: Antibacterial activity against methicillin-sensitive Staphylococcus aureus 12-28 after 18 hrs by CLSI broth microdilution method; format: functional; settings: 12-28, 18 h

C[C@@H](O)[C@H]1C(=O)N2C(C(=O)O)=C(S[C@@H]3CN[C@H](C(=O)N(C)C)C3)[C@H](C)[C@H]12 [MEROPENEM]
64 µg/mL: MIC [3] | MIC [10]
8 µg/mL: MIC [9]
32 µg/mL: MIC [2] | MIC [5] | MIC [6] | MIC [8]
2 µg/mL: MIC [4] | MIC [7]
4 µg/mL: MIC [1]

N=C(c1ccc2cc(-c3ccc(-c4cc5ccc(C(=N)N6CCC(N7CCCC7)CC6)cc5[nH]4)cc3)[nH]c2c1)N1CCC(N2CCCC2)CC1
16 µg/mL: MIC [13] | MIC [25] | MIC [26] | MIC [27] | MIC [28] | MIC [33] | MIC [35] | MIC [36] | MIC [37] | MIC [38] | MIC [39] | MIC [43] | MIC [44] | MIC [45] | MIC [50]
> 128 µg/mL: MIC [17] | MIC [20] | MIC [40]
4 - 512: Ratio [12] | Ratio [29] | Ratio [31] | Ratio [41]
8 µg/mL: MIC [18] | MIC [23] | MIC [30] | MIC [42] | MIC [47] | MIC [51] | MIC [52] | MIC [53]
4 µg/mL: MIC [15]
32 µg/mL: MIC [16] | MIC [19]
50 µg/mL: CC50 at 48 h [32]
64 µg/mL: MIC [14] | MIC [21]
128 µg/mL: MIC [11] | MIC [22] | MIC [24] | MIC [34] | MIC [46]
4 - 128: Ratio [48] | Ratio [49]

CN(C)c1cc(NC(=O)CNC(C)(C)C)c(O)c2c1C[C@H]1C[C@H]3[C@H](N(C)C)C(O)=C(C(N)=O)C(=O)[C@@]3(O)C(O)=C1C2=O [TIGECYCLINE]
8 µg/mL: MIC [16] | MIC [4]
0.25 µg/mL: MIC [1]
0.5 µg/mL: MIC [7] | MIC [9] | MIC [10]
1 µg/mL: MIC [2] | MIC [3] | MIC [5] | MIC [6] | MIC [8]
